Reference: PMC6985722 (Antimicrobial Agents and Chemotherapy, 2020)

System: RSV-A Memphis-37b
Test: RSV human challenge study: viral load in nasal wash by quantitative culture
Type: in vivo
Protocol: Subjects were screened outside the RSV season for eligibility, including measurement of RSV-A Memphis-37b-specific neutralizing antibody titer, ≤90 days before virus challenge. Eligible subjects were admitted to the quarantine unit on day −2 or day −1 and were inoculated intranasally on day 0 with the challenge virus, RSV-A Memphis-37b (4 log10 PFU/ml, given as one 0.4-ml installation per naris), as previously described ([26]). Nasal wash sampling every 12 h for confirmation of RSV infection by qualitative integrated cycler PCR ([12], [19]) began on the morning of day 2. Treatment began 12 h (±1 h) after collection of a nasal wash sample confirming RSV infection or on the evening of day 5 if RSV infection remained unconfirmed by the morning of day 5.
The study comprised two consecutive cohorts. […] Subjects were discharged on day 12 if nasopharyngeal swab samples tested negative by RSV rapid antigen assay (QuickVue RSV test; Quidel, San Diego, CA, USA). If such tests were positive or if a subject remained symptomatic, quarantine was extended to allow further observation. All subjects were evaluated on day 28 (±3 days).
Twice-daily collection of nasal wash samples allowed measurement of viral load via RT-qPCR and quantitative culture. RT-qPCR results were reported as PFUe/ml when the standard curve included in each assay contained a known infectious amount (PFU) of RSV, as described previously ([30]). Subjects reported the occurrence and severity of symptoms three times daily using a 10-item subject symptom diary card as previously reported ([12]) (see Supplemental Methods). Throughout the quarantine period, used tissues were collected and weighed daily, and total nasal mucus weight was recorded. PK assessments were based on venous blood samples. Safety assessments included measurement of vital signs, standard 12-lead ECG recordings, spirometry, a complete physical examination, and a respiratory-directed physical examination. AEs were monitored daily, coded according to the Medical Dictionary for Regulatory Activities Version 20.0, and graded according to the National Cancer Institute Common Terminology Criteria for Adverse Events Version 4.0 (see Supplemental Methods for further details).
The primary efficacy endpoint was AUC for RSV viral load, as measured by RT-qPCR, in nasal wash samples taken twice daily from just before the first dose until discharge (day 12). Viral load data were provided as log10 PFUe/ml; AUC (log10 PFUe/ml · h) was calculated using the trapezoid rule. Secondary efficacy endpoints related to viral load were AUC of RSV viral load, as assessed by quantitative culture, and the following measures, which were each assessed using both RT-qPCR and quantitative culture: peak viral load, time to peak viral load, and time to <1 log10 (for RT-qPCR) or undetectable (for quantitative culture) viral load (considered to occur at the first confirmed undetectable assessment after which no further virus was detected). Secondary efficacy endpoints related to clinical symptoms included AUC total symptom score; peak total symptom score; time to peak total symptom score; and the total weight of nasal mucus produced. Other secondary outcomes were safety, PK, and sequence detection of viral variants (see Supplemental Methods).
The primary efficacy analysis population (the ITT-I analysis set) comprised all randomized subjects who received challenge virus and at least one dose of study drug and met the criterion for laboratory-confirmed RSV infection (presence of detectable RSV). Sensitivity analyses were based on a subset of the ITT-I population who had first detectable RSV infection prior to study drug administration (the ITT-A analysis set) and a fixed time period of 6.5 days (comprising data for all subjects for 6.5 days of evaluation after the first dose, regardless of the staggered commencement of dosing). […]

[1] = 200 mg, ITT-I, fixed time period of 6.5 days
[2] = 350 mg, ITT-A, fixed time period of 6.5 days
[3] = 350 mg, ITT-I, fixed time period of 6.5 days

With `NCc1ccc2c(c1)nc(CN1C(=O)C3(CC3)c3ccc(F)cc31)n2CCCC(F)(F)F` [RV521] the “AUC of viral load (quantitative culture), mean (SE)” value (“AUC of viral load … (SE)” for short) (200 mg, ITT-A) was 53.89 (15.47) hours x log10 PFU/mL, the “AUC of viral load (quantitative culture), reduction in mean vs placebo” value (shortened to “AUC of viral load … reduction in mean vs placebo”) (200 mg, ITT-A) was 71.47% and the “Peak viral load (quantitative culture), mean (SE)” value (200 mg, ITT-A) was 1.82 (0.41) log10 PFU/mL. The “Time to peak viral load (quantitative culture), mean (SE)” value (“Time to peak viral load … (SE)” below) (200 mg, ITT-A) was 3.53 (0.84) days, the “Time to undetectable viral load (quantitative culture), median (Q1, Q3)” value (“Time to undetectable viral load” below) (200 mg, ITT-A) was 3 (2, 3.5) days and the “AUC of viral load … (SE)” value (200 mg, ITT-I) was 50.98 (14.89) log10 PFU/ml · h. For the same compound, the “AUC of viral load (quantitative culture), reduction in mean vs that of placebo” value (200 mg, ITT-I) was 68.60%, the “Peak viral load (quantitative culture), mean (SE)” value (200 mg, ITT-I) was 1.72 (0.40) log10 PFU/ml and the “Time to peak viral load … (SE)” value (200 mg, ITT-I) was 3.69 (0.81) days. For the same compound, the “Time to undetectable viral load” value (200 mg, ITT-I) was 3.0 (2.0, 3.5) (n = 11) days, the “Mean viral load at time of peak viral load in placebo arm (day 2; quantitative culture), mean (SE)” value (200 mg, ITT-I) was 0.88 (0.30) log10 PFU/ml and the “AUC of viral load … (SE)” value [1] was 50.98 (14.89) log10 PFU/mL x hours. For the same compound, the “AUC of viral load … reduction in mean vs placebo” value [1] was 68.60%, the “AUC of viral load … (SE)” value (350 mg, ITT-A) was 43.76 (14.73) hours x log10 PFU/mL and the “AUC of viral load … reduction in mean vs placebo” value (350 mg, ITT-A) was 76.83%. The “Peak viral load (quantitative culture), mean (SE)” value (350 mg, ITT-A) was 1.81 (0.44) log10 PFU/mL, the “Time to peak viral load … (SE)” value (350 mg, ITT-A) was 3.47 (0.87) days and the “Time to undetectable viral load” value (350 mg, ITT-A) was 2.5 (2, 2.5) days. The “AUC of viral load … (SE)” value [2] was 43.76 (14.73) log10 PFU/mL x hours, the “AUC of viral load … reduction in mean vs placebo” value [2] was 76.83% and the “AUC of viral load … (SE)” value (350 mg, ITT-I) was 38.29 (13.36) log10 PFU/ml · h. The “AUC of viral load (quantitative culture), reduction in mean vs that of placebo” value (350 mg, ITT-I) was 76.42%, the “Peak viral load (quantitative culture), mean (SE)” value (350 mg, ITT-I) was 1.58 (0.41) log10 PFU/ml and the “Time to peak viral load … (SE)” value (350 mg, ITT-I) was 3.85 (0.80) days. For the same compound, the “Time to undetectable viral load” value (350 mg, ITT-I) was 2.5 (2.0, 2.5) (n = 9) days, the “Mean viral load at time of peak viral load in placebo arm (day 2; quantitative culture), mean (SE)” value (350 mg, ITT-I) was 0.71 (0.32) log10 PFU/ml and the “AUC of viral load … (SE)” value [3] was 38.29 (13.36) log10 PFU/mL x hours. The “AUC of viral load … reduction in mean vs placebo” value [3] was 76.42%.
